Laboratory results published in PubChem BioAssay AID2838 (The Scripps Research Institute Molecular Screening Center, 2010).
Activity calls are given as the source filed them.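 Rule for the calls: active = IC50 at or below 10 µM; inactive = IC50 above 10 µM.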

What follows are compounds tested against tRNA 2'-phosphotransferase Tpt1 (Candida albicans SC5314) (assay: tRNA 2'-phosphotransferase enzyme inhibition potency – biochemical, fluorescence polarization, dose response, late-stage follow-up (AID 2838)). Conditions: recombinant caTpt1, RNase T1-coupled fluorescence polarization.

IC50, inactive:
NS(=O)(=O)c1cc(C(=O)NC2CCSc3ccccc32)ccc1Cl (centres undefined) > 49.8 µM
OC(Cn1cncn1)(Cn1cncn1)c1ccc(F)cc1F > 49.8 µM
NC(=O)c1cc[n+](CC2=C(C(=O)O)N3C(=O)[C@@H](NC(=O)C(c4ccccc4)S(=O)(=O)O)[C@H]3SC2)cc1 (some centres undefined)
CC1=C(C#N)C(=O)N(C2CCS(=O)(=O)C2)C(=O)/C1=C\c1ccco1 (centres undefined) > 49.8 µM
